Laboratory results published in patent publication US20120040987A1, “DERIVATIVES OF 6-(6-NH-SUBSTITUTED-TRIAZOLOPYRIDAZINE-SULFANYL) BENZOTHIAZOLES AND BENZIMIDAZOLES, PREPARATION THEREOF, USE THEREOF AS DRUGS, AND USE THEREOF AS MET INHIBITORS” (SANOFI, priority 2009, published 2012).

Legend:
[1] = tested on: HCT116 cells and MKN45 cells; test: Test C: measurement of cell proliferation by 14C-thymidine pulse; assay type: cell-based; settings: 14C-thymidine incorporation, 96 h of treatment; cell line not given
Procedure: The cells are seeded into Cytostar 96-well plates in 180 μl for 4 hours at 37° C. and 5% CO2: HCT116 cells at a rate of 2500 cells per well in DMEM medium+10% foetal calf serum+1% L-glutamine and MKN45 cells at a rate of 7500 cells per well in RPMI medium+10% foetal calf serum+1% L-glutamine. After these 4 hours of incubation, the products are added in 10 μl as a 20-fold concentrated solution according to the dilution method mentioned for the ELISA. The products are tested at 10 concentrations in duplicate from 10 000 nM to 0.3 nM with an increment of 3.
After treatment for 72 h, add 10 μl of ^14C-thymidine at 10 μCi/ml to obtain 0.1 μCi per well. The ^14C-thymidine incorporation is measured on a Micro-Beta machine (Perkin-Elmer) after 24 hours of pulse and 96 h of treatment.
All the steps of the assay are automated on BIOMEK 2000 or TECAN stations.

[2] = target: T1, MET (Homo sapiens, UniProt P08581); test: Test A: HTRF MET assay in 96-well format; assay type: biochemical; set-up: The His-Tev-MET (956-1390) recombinant DNA in pFastBac (Invitrogen) is transfected into insect cells; His tag (N, cleaved yes); Tev cleavage site (N, cleaved yes); made in house; host or cells: SF21 insect cells (baculovirus, pFastBac); settings: MET 5 nM, 10 μM ATP
Procedure: The His-Tev-MET (956-1390) recombinant DNA in pFastBac (Invitrogen) is transfected into insect cells, and after several viral amplification steps, the final baculovirus stock is tested for the expression of the protein of interest.
After infection for 72 h at 27° C. with the recombinant virus, the SF21 cell cultures are harvested by centrifugation and the cell pellets are stored at −80° C.
The cell pellets are resuspended in lysis buffer (buffer A [50 mM HEPES, pH 7.5, 250 mM NaCl, 10% glycerol, 1 mM TECP]; +cocktail of protease inhibitors, Roche Diagnostics, without EDTA, ref 1873580), stirred at 4° C. until the mixture is homogeneous and then lyzed mechanically using a “Dounce” type apparatus.
After centrifugation, the lysis supernatant is incubated for 2 h at 4° C. with nickel chelate resin (His-Trap 6 Fast Flow™, GE HealthCare). After washing with 20 volumes of buffer A, the suspension is packed into a column, and the proteins are eluted with a gradient of buffer B ([…]+290 mM imidazole).
The fractions containing the protein of interest for the purpose of electrophoretic analysis (SDS PAGE) are combined, concentrated by ultrafiltration (10 kDa cut-off) and injected onto an exclusion chromatography column (Superdex™ 200, GE HealthCare) equilibrated in buffer A.
After enzymatic cleavage of the histidine tag, the protein is reinjected onto a new IMAC nickel chelate chromatography column (His-Trap 6 Fast Flow™, GE HealthCare) equilibrated in buffer A. The fractions eluted with a gradient of buffer B and containing the protein of interest after electrophoresis (SDS PAGE) are finally combined and conserved at −80° C.
For the production of autophosphorylated protein, the previous fractions are incubated for 1 h at ambient temperature after the addition of 2 mM ATP, 2 mM MgCl2, and 4 mM Na3VO4. After the reaction has been stopped with 5 mM of EDTA, the reaction mixture is injected onto a HiPrep desalifying column (GE HealthCare) preequilibrated in buffer A+4 mM Na3VO4, and the fractions containing the protein of interest (SDS PAGE analysis) are combined and stored at −80° C. The degree of phosphorylation is verified by mass spectrometry (LC-MS) and by peptide mapping.
MET at a final concentration of 5 nM is incubated in a final volume of 50 μl of enzymatic reaction in the presence of the test molecule (for a final concentration range of from 0.17 nM to 10 μM, 3% DMSO final concentration) in 10 mM MOPS buffer, pH 7.4, 1 mM DTT, 0.01% Tween 20. The reaction is initiated with the substrate solution to obtain final concentrations of 1 μg/ml poly-(GAT), 10 μM ATP and 5 mM MgCl2. After incubation for 10 min at ambient temperature, the reaction is stopped with a 30 μl mix so as to obtain a final solution of 50 mM Hepes pH 7.5, 500 mM potassium fluoride, 0.1% BSA and 133 mM EDTA in the presence of 80 ng of streptavidin 61SAXLB Cis-Bio Int. and 18 ng of anti-phosphotyrosine Mab PT66-Europium Cryptate per well. After incubation for 2 hours at ambient temperature, the reading is taken at 2 wavelengths, 620 nm and 665 nm, on a reader for the TRACE/HTRF technique and the % inhibition is calculated from the 665/620 ratios.
Target sequence in this assay (P08581 956-1390): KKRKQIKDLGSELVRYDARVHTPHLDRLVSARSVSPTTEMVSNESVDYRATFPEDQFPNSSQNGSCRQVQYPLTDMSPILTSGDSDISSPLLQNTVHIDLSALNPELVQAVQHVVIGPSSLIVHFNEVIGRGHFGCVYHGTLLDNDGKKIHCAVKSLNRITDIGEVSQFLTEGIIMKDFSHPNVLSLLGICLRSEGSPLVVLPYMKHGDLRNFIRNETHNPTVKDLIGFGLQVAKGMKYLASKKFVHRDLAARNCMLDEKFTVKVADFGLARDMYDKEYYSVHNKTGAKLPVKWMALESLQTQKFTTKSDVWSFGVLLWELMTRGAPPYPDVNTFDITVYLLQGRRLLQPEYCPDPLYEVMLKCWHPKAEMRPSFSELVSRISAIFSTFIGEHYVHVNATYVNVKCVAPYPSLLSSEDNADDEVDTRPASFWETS

[3] = target: T1, MET; test: Test B: inhibition of the autophosphorylation of MET, ELISA technique (pppY1230, 1234, 1235) on MKN45 cell lysates; assay type: cell-based; set-up: endogenous in cells; host or cells: MKN45 cells; settings: MKN45 cells, 1 h treatment, phosphoMET ELISA
Procedure: a) Cell lysates: Seed MKN45 cells into 96-well plates (Cell coat BD polylysine) at 20 000 cells/well in 200 μl in RPMI medium+10% FCS+1% L-glutamine. Leave to adhere for 24 hours in an incubator.
The cells are treated the day after seeding with the products at 6 concentrations in duplicate for 1 h. At least 3 control wells are treated with the same final amount of DMSO.
Product dilution: Stock at 10 mM in pure DMSO—range from 10 mM to 30 μM with an increment of 3 in pure DMSO—intermediate 1/50 dilutions in culture medium and then removal of 10 μl added directly to the cells (200 μl): final range of 10 000 to 30 nM.
At the end of the incubation, carefully remove the supernatant and rinse with 200 μl of PBS. Next, place 100 μl of lysis buffer directly in the wells on ice and incubate at 4° C. for 30 minutes. Lysis buffer: 10 mM Tris HCl, pH7.4, 100 mM NaCl, 1 mM EDTA, 1 mM EGTA, 1% Triton X-100, 10% glycerol, 0.1% SDS, 0.5% deoxycholate, 20 mM NaF, 2 mM Na3VO4, 1 mM PMSF and cocktail of antiproteases.
The 100 μl of lysates are transferred into a V-bottomed polypropylene plate and the ELISA is performed immediately, or the plate is frozen at −80° C.
Into each well of the kit plate, add 70 μl of kit dilution buffer+30 μL of cell lysate or 30 μl of lysis buffer for the blanks. Incubate for 2 h with gentle agitation at ambient temperature.
Rinse the wells 4 times with 400 μl of kit washing buffer. Incubate with 100 μl of anti-phospho MET antibody for 1 hour at ambient temperature.
Rinse the wells 4 times with 400 μl of kit washing buffer. Incubate with 100 μl of anti-rabbit HRP antibody for 30 minutes at ambient temperature (except for the wells of chromogen alone).
Rinse the wells 4 times with 400 μl of kit washing buffer. Introduce 100 μL of chromogen and incubate for 30 minutes in the dark at ambient temperature.
Stop the reaction with 100 μl of stop solution. Read without delay at […], 0.1 second on Wallac Victor plate reader.
Target sequence in this assay (P08581 25-1390): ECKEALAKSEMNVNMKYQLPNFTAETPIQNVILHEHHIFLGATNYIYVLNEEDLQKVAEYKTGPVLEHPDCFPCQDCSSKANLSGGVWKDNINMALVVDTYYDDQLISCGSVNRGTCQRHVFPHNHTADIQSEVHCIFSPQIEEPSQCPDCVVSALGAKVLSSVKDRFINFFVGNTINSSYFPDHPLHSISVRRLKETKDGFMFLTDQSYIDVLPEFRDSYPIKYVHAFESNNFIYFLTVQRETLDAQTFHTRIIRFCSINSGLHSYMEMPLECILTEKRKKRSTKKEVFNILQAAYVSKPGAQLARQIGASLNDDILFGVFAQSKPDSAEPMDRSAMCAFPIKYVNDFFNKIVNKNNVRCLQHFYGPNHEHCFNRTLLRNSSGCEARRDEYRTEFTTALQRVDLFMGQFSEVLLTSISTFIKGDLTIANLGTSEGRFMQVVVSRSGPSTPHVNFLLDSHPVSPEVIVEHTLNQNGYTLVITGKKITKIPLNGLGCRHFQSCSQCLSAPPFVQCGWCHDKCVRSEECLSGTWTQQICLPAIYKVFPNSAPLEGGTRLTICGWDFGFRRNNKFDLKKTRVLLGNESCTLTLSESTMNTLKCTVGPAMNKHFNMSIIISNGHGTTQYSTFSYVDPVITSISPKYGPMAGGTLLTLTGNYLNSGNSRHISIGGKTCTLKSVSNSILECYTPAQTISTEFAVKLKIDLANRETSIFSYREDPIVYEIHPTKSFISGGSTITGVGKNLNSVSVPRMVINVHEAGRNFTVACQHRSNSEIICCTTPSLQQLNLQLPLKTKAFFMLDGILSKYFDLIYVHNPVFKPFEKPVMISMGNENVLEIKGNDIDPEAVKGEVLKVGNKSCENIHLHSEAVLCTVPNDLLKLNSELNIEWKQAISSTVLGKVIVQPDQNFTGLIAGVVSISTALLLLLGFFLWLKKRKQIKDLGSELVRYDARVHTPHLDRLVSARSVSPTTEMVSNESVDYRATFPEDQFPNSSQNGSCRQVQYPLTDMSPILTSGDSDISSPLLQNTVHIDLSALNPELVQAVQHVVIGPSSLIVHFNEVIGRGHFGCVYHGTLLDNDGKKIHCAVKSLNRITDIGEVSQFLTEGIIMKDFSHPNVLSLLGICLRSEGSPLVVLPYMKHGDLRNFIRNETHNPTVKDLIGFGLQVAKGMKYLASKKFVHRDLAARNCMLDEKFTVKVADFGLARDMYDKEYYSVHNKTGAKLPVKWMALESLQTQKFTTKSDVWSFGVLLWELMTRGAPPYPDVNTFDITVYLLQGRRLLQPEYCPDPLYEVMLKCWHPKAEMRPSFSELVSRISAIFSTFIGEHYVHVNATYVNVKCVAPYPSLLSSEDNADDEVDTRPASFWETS

SMILES	IC50 [1]	IC50 [2]	IC50 [3]
Nc1nc2ccc(Sc3nnc4ccc(NC5CCOCC5)nn34)cc2s1 [Example 1, 3-[(2-Amino-1,3-benzothiazol-6-yl)sulphanyl]-N-(tetrahydro-2H-pyran-4-yl)[1,2,4]triazolo[4,3-b]pyridazin-6-amine]	< 1000 nM	< 100 nM	
CC(=O)Nc1nc2ccc(Sc3nnc4ccc(NC5CCOCC5)nn34)cc2s1 [Example 2, N-(6-{[6-(Tetrahydro-2H-pyran-4-ylamino)[1,2,4]triazolo[4,3-b]pyridazin-3-yl]sulphanyl}-1,3-benzothiazol-2-yl)acetamide]	< 1000 nM	< 100 nM	< 100 nM
O=C(Nc1nc2ccc(Sc3nnc4ccc(NC5CCOCC5)nn34)cc2s1)C1CC1 [Example 3, N-(6-{[6-(Tetrahydro-2H-pyran-4-ylamino)[1,2,4]triazolo[4,3-b]pyridazin-3-yl]sulphanyl}-1,3-benzothiazol-2-yl)cyclopropanecarboxamide]	< 1000 nM	< 100 nM	< 100 nM
O=C(NCCN1CCOCC1)Nc1nc2ccc(Sc3nnc4ccc(NC5CCOCC5)nn34)cc2s1 [Example 4, 1-[2-(Morpholin-4-yl)ethyl]-3-(6-{[6-(tetrahydro-2H-pyran-4-ylamino)-[1,2,4]triazolo[4,3-b]pyridazin-3-yl]sulphanyl}-1,3-benzothiazol-2-yl)urea]	< 1000 nM	< 100 nM	< 100 nM
COCCC(=O)Nc1nc2ccc(Sc3nnc4ccc(NC5CCOCC5)nn34)cc2s1 [Example 5, 3-Methoxy-N-(6-{[6-(tetrahydro-2H-pyran-4-ylamino)[1,2,4]triazolo-[4,3-b]pyridazin-3-yl]sulphanyl}-1,3-benzothiazol-2-yl)propanamide]	< 1000 nM	< 100 nM	< 100 nM
CN(C)CC(=O)Nc1nc2ccc(Sc3nnc4ccc(NC5CCOCC5)nn34)cc2s1 [Example 6, N^2,N^2-dimethyl-N-(6-{[6-(tetrahydro-2H-pyran-4-ylamino)[1,2,4]triazolo-[4,3-b]pyridazin-3-yl]sulphanyl}-1,3-benzothiazol-2-yl)glycinamide]	< 1000 nM	< 100 nM	< 100 nM
